Results: ChEMBL document CHEMBL1158264, “DNA topoisomerase I inhibitors: cytotoxic flavones from Lethedon tannaensis” (J Nat Prod, 1996)
Converted amounts (≈) assume the structure as drawn. The source made the active and inactive calls. No cut-off for these calls is given here.

Legend:
P388 [1] = assay: Cytotoxicity against mouse P388 cells at 100 ug/mL; type: functional, cell-based
KB = assay: Cytotoxicity against human KB cells; type: functional, cell-based
Bos taurus [2] = organism: Bos taurus; assay: Inhibition of calf thymus DNA topoisomerase 1 assessed as minimum efficient dose
Bos taurus [3] = organism: Bos taurus; assay: Inhibition of calf thymus tubulin assembly
[4] = target: T1, DNA topoisomerase 1 (Homo sapiens) (UniProt P11387); assay: Inhibition of DNA topoisomerase 1
T1 sequence (whole entry): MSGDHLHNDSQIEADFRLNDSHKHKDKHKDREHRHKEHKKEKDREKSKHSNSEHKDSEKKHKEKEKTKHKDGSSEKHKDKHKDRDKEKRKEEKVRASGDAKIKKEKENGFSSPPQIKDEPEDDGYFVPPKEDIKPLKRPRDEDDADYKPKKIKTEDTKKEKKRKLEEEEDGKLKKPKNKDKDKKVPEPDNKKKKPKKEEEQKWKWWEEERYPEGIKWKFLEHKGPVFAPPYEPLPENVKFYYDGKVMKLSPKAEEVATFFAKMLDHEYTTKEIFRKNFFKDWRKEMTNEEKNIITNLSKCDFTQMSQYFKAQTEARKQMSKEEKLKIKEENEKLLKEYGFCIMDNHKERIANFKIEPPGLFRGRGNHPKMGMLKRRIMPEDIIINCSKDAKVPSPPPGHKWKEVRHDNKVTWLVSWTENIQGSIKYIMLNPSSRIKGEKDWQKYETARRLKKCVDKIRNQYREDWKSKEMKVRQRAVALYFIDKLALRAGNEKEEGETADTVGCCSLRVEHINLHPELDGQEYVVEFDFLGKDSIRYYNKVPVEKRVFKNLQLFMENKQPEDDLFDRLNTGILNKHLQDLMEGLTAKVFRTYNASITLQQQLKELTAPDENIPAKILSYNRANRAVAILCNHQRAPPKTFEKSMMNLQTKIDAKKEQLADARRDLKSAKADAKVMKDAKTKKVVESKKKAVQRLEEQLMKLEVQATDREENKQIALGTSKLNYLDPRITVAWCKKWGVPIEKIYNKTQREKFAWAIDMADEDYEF

[5] = target: DNA topoisomerase 2-alpha (Homo sapiens) (UniProt P11388); assay: Inhibition of DNA topoisomerase 2
DNA topoisomerase 2-alpha (Homo sapiens), sequence (P11388 whole entry): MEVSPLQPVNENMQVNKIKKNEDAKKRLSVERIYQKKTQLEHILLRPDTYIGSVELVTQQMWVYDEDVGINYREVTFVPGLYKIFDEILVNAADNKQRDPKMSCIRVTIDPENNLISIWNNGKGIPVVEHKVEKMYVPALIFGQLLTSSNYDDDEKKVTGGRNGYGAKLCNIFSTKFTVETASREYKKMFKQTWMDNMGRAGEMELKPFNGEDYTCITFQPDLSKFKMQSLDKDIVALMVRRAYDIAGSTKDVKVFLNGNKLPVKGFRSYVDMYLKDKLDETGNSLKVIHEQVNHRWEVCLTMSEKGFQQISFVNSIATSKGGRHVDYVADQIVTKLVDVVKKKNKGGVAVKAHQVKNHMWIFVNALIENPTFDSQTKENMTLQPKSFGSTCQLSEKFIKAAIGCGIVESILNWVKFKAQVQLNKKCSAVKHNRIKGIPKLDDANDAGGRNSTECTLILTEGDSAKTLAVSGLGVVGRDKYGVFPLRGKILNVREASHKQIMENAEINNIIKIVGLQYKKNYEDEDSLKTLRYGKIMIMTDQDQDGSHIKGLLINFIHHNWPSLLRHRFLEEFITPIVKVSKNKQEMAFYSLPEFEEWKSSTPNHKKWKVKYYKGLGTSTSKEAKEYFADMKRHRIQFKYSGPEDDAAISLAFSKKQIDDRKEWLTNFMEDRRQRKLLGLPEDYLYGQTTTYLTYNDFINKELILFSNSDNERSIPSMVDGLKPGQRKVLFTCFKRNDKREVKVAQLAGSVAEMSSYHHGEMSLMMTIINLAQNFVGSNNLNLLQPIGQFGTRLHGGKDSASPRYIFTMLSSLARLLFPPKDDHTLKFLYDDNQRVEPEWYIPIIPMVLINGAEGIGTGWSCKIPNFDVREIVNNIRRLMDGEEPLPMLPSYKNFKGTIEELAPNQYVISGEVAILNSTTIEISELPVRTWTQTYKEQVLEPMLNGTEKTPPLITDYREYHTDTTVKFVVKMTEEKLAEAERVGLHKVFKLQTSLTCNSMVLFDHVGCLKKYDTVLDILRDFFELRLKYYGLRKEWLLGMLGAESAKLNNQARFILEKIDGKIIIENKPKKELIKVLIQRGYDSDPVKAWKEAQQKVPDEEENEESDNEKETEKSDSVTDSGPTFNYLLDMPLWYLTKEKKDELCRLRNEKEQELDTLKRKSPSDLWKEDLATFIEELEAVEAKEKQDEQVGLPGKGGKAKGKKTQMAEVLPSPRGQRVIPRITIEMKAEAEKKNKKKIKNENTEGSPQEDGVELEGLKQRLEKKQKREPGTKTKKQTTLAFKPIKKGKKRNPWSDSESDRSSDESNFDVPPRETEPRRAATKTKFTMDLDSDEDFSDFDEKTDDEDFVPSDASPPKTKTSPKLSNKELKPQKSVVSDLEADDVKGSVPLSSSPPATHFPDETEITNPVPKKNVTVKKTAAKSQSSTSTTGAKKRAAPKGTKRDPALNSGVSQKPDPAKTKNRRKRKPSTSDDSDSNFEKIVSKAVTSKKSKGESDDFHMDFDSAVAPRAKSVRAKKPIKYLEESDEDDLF

P388 [6] = assay: Cytotoxicity against mouse P388 cells; type: functional, cell-based

Question: For `COc1cc(O)c2c(=O)cc(-c3ccc(OC)c(OC)c3)oc2c1`, which Activity (P388 [1]) is on record?
Answer: inactive

Question: What about the IC50 (KB) of the same compound?
Answer: 19.4 µg/mL (≈ 59.1 µM)

Question: How did the Activity (P388 [1]) turn out when `COc1cc(O)c2c(=O)cc(-c3cc(OC)c(O)c(OC)c3)oc2c1` was run?
Answer: inactive

Question: What about the IC50 (KB) of the same compound?
Answer: 7.7 µg/mL (≈ 22.4 µM)

Question: What about the MED (Bos taurus [2]) of the same compound?
Answer: 1 µg/mL

Question: What about the Activity (Bos taurus [3]) of the same compound?
Answer: inactive

Question: For `O=c1c(O)c(-c2cc(O)c(O)c(O)c2)oc2cc(O)cc(O)c12`, which Activity [4] is on record?
Answer: Active

Question: What about the Activity [5] of the same compound?
Answer: Active

Question: What does the source list for `O=c1c(O)c(-c2ccc(O)c(O)c2)oc2cc(O)cc(O)c12`?
Answer: Activity [4]: Active; Activity [5]: Active

Question: How did the Activity [4] turn out when `O=c1c(O)c(-c2ccc(O)c(O)c2)oc2cc(O)ccc12` was run?
Answer: Active

Question: And the Activity [5]?
Answer: Active

Question: How did the IC50 (KB) turn out when `CC[C@@]1(O)C(=O)OCc2c1cc1n(c2=O)Cc2cc3ccccc3nc2-1` [CAMPTOTHECIN] was run?
Answer: 0.01 µg/mL (≈ 0.0287 µM)

Question: And the MED (Bos taurus [2])?
Answer: 0.03 µg/mL

Question: With `COc1ccc(-c2oc3cc(O)c(OC)c(O)c3c(=O)c2OC)cc1O` [CENTAUREIDIN] as the compound, how does the IC50 (KB) read?
Answer: 0.04 µg/mL (≈ 0.111 µM)

Question: Which Activity (P388 [1]) does the source give for `COc1cc(O)c2c(=O)cc(-c3cc(OC)c(OC)c(OC)c3)oc2c1` [CORYMBOSIN] here?
Answer: inactive

Question: And the IC50 (KB)?
Answer: 19.4 µg/mL (≈ 54.1 µM)

Question: How did the IC50 (P388 [6]) turn out when `COc1cccc2c1C(=O)c1c(O)c3c(c(O)c1C2=O)C[C@@](O)(C(=O)CO)C[C@@H]3O[C@H]1C[C@H](N)[C@H](O)[C@H](C)O1` [DOXORUBICIN] was run?
Answer: 0.005 µg/mL (≈ 0.0092 µM)

Question: And the IC50 (KB)?
Answer: 1.5 µg/mL (≈ 2.76 µM)

Question: What does the source list for `COc1cc(O)c2c(=O)cc(-c3ccc(O)cc3)oc2c1` [GENKWANIN]?
Answer: IC50 (P388 [6]): 10 µg/mL (≈ 35.2 µM); IC50 (KB): 8.7 µg/mL (≈ 30.6 µM); MED (Bos taurus [2]): > 10 µg/mL

Question: Which results are given for `COc1cc(O)c2c(=O)cc(-c3cc(O)c(OC)c(OC)c3)oc2c1` [LETHEDOCIN]?
Answer: Activity (P388 [1]): inactive; IC50 (KB): 16.4 µg/mL (≈ 47.6 µM)

Question: For `COc1cc(O)c2c(=O)cc(-c3ccc(O)c(OC)c3)oc2c1` [VELUTIN], which IC50 (P388 [6]) is on record?
Answer: 10 µg/mL (≈ 31.8 µM)

Question: What about the MED (Bos taurus [2]) of the same compound?
Answer: 0.1 µg/mL

Question: And the Activity (Bos taurus [3])?
Answer: inactive
